Source: ChEMBL document CHEMBL3588800, “Novel Bioactive Hybrid Compound Dual Targeting Estrogen Receptor and Histone Deacetylase for the Treatment of Breast Cancer” (J Med Chem, 2015)

What was measured:
[1] = target: T1, Estrogen receptor (Homo sapiens) (UniProt P03372); test: Agonist activity at ER-alpha (unknown origin) transfected in HEK293T cells assessed as stimulation of transcriptional activity after 24 hrs by luciferase reporter gene assay relative to 17-beta estradiol; type: cell-based; settings: HEK-293T
T1 sequence (whole entry): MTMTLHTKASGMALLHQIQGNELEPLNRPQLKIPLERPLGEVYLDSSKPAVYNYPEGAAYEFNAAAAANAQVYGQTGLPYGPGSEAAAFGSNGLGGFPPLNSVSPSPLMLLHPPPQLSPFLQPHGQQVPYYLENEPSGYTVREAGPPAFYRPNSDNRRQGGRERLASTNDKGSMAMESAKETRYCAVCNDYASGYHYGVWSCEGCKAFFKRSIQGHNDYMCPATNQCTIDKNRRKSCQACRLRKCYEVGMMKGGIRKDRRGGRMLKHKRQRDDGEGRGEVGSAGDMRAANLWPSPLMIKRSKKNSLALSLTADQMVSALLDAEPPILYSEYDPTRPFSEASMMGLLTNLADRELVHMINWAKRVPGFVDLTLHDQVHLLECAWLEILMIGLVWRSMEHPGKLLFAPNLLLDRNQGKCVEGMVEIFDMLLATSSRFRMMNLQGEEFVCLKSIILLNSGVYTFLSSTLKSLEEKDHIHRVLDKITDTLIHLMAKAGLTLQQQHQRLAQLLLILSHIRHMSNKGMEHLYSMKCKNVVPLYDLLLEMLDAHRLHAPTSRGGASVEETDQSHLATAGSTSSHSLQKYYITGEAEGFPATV

Histone deacetylase 1 = Histone deacetylase 1 (Homo sapiens, UniProt Q13547); test: Inhibition of human recombinant HDAC1 after 15 mins by fluorogenic assay; settings: read-out: IC50
Sequence of Histone deacetylase 1 (Q13547 whole entry): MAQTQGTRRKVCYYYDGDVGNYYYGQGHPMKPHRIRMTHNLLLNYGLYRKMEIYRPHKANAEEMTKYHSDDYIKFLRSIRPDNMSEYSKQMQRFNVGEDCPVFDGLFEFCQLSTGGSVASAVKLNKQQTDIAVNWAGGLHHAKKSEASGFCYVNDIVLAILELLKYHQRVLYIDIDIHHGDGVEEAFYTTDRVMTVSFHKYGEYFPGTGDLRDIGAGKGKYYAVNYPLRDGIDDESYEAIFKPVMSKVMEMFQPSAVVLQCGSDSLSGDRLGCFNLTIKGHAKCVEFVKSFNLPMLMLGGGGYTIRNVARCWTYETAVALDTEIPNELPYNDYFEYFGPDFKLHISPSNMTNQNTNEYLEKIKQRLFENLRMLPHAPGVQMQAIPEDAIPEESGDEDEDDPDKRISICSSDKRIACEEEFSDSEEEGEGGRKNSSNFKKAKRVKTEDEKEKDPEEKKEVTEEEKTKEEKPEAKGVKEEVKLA

DU-145 = test: cells; type: functional, cell-based; settings: Homo sapiens, DU-145, 72 h
Estrogen receptor beta [2] = target: T2, Estrogen receptor beta (Homo sapiens, UniProt Q92731); test: Antagonist activity at ER-beta (unknown origin) transfected in HEK293T cells assessed as inhibition of transcriptional activity after 24 hrs by luciferase reporter gene assay relative to 17-beta estradiol; type: cell-based; settings: HEK-293T
T2 sequence (Q92731 whole entry): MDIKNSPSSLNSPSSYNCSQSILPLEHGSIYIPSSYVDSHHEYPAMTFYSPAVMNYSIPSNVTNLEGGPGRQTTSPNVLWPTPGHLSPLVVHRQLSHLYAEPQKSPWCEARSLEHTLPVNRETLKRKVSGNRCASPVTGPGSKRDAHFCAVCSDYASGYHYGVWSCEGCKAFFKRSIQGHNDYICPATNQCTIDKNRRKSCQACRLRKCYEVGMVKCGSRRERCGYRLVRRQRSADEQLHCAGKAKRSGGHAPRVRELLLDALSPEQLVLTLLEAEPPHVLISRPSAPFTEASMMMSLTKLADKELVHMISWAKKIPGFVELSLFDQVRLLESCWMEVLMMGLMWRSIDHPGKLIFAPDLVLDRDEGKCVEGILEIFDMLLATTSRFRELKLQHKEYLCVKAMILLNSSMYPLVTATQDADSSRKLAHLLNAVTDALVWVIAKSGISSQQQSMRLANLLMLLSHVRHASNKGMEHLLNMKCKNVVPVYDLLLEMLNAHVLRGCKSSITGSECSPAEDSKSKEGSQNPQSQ

[3] = target: T3, Protein deacetylase HDAC6 (Homo sapiens, UniProt Q9UBN7); test: Inhibition of human recombinant HDAC6 after 15 mins by fluorogenic assay; settings: read-out: IC50
T3 sequence (Q9UBN7 whole entry): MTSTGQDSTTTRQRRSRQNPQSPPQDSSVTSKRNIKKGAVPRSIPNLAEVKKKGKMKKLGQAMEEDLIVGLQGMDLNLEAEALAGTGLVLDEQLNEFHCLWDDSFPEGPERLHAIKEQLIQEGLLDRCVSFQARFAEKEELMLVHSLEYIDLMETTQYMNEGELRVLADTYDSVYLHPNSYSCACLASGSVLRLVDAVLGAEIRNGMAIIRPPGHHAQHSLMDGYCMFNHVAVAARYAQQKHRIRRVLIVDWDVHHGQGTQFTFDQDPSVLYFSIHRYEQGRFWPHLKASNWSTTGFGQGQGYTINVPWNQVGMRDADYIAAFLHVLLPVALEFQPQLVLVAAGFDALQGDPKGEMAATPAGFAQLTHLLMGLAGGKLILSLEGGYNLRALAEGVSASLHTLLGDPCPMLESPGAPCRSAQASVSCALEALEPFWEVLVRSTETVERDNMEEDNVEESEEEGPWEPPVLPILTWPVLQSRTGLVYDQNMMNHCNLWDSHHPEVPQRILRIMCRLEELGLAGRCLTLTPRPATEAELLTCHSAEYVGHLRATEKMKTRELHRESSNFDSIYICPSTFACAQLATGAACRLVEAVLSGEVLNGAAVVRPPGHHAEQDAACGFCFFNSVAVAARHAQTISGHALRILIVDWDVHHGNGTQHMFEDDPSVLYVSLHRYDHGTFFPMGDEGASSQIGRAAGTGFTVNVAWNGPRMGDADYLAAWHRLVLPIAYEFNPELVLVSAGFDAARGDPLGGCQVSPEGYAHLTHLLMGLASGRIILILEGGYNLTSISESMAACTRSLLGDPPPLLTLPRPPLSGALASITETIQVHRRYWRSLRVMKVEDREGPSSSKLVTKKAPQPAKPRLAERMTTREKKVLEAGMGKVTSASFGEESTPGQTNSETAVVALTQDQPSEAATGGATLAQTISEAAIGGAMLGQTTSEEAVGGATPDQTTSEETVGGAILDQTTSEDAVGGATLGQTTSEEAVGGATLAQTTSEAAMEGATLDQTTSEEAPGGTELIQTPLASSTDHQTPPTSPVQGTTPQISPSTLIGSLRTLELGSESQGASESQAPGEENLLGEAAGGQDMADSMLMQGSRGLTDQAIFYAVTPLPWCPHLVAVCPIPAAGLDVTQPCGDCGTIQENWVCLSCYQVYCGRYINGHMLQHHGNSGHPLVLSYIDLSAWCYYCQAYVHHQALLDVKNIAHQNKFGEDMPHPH

MCF7 = test: cells; type: functional, cell-based; settings: Homo sapiens, MCF7, 72 h
Estrogen receptor [4] = target: T4, Estrogen receptor (Homo sapiens, UniProt P03372); test: Binding affinity to human ER-alpha ligand binding domain after 2 hrs by competitive fluorometric binding assay
T4 sequence (P03372 whole entry): T1 sequence (whole entry)

Vero = test: cells; type: ADME, cell-based; settings: Chlorocebus sabaeus, 72 h
[5] = target: T1, Estrogen receptor (Homo sapiens); test: Antagonist activity at ER-alpha (unknown origin) transfected in HEK293T cells assessed as inhibition of transcriptional activity after 24 hrs by luciferase reporter gene assay relative to 17-beta estradiol; type: cell-based; settings: HEK-293T
[6] = Therapeutic index, ratio of IC50 for african green monkey Vero cells to IC50 for human MCF7 cells
Estrogen receptor beta [7] = target: T2, Estrogen receptor beta; test: Agonist activity at ER-beta (unknown origin) transfected in HEK293T cells assessed as stimulation of transcriptional activity after 24 hrs by luciferase reporter gene assay relative to 17-beta estradiol; type: cell-based; settings: HEK-293T
Estrogen receptor beta [8] = target: T2, Estrogen receptor beta; test: Binding affinity to human ER-beta ligand binding domain after 2 hrs by competitive fluorometric binding assay
Estrogen receptor [9] = target: T4, Estrogen receptor; test: Antagonist activity at ER-alpha (unknown origin) transfected in HEK293T cells assessed as inhibition of transcriptional activity after 24 hrs by luciferase reporter gene assay; type: cell-based, HEK-293T
Estrogen receptor beta [10] = target: T2, Estrogen receptor beta; test: Antagonist activity at ER-beta (unknown origin) transfected in HEK293T cells assessed as inhibition of transcriptional activity after 24 hrs by luciferase reporter gene assay; type: cell-based, HEK-293T
Estrogen receptor beta [11] = target: T2, Estrogen receptor beta; test: Agonist activity at ER-beta (unknown origin) transfected in HEK293T cells assessed as stimulation of transcriptional activity after 24 hrs by luciferase reporter gene assay; type: cell-based, HEK-293T
Estrogen receptor [12] = target: T4, Estrogen receptor; test: Agonist activity at ER-alpha (unknown origin) transfected in HEK293T cells assessed as stimulation of transcriptional activity after 24 hrs by luciferase reporter gene assay; type: cell-based, HEK-293T

SMILES	Efficacy [1]	IC50 (Histone deacetylase 1)	IC50 (DU-145)	Efficacy (Estrogen receptor beta [2])	IC50 [3]	IC50 (MCF7)	Ki (Estrogen receptor [4])	IC50 (Vero)	Efficacy [5]	selectivity ratio [6]	Efficacy (Estrogen receptor beta [7])	Ki (Estrogen receptor beta [8])	IC50 (Estrogen receptor [9])	IC50 (Estrogen receptor beta [10])	EC50 (Estrogen receptor beta [11])	EC50 (Estrogen receptor [12])
COC(=O)CCCCCCC(=O)Nc1ccc(OS(=O)(=O)C2CC3OC2C(c2ccc(O)cc2)=C3c2ccc(O)cc2)cc1 (stereo not drawn)	-35%	534 nM	20400 nM	76%	1580 nM	8100 nM	59.9 nM	> 100000 nM	10%	> 12.3	4%	756 nM	10800 nM	330 nM		
O=C(O)CCCCCCC(=O)Nc1ccc(C2=C(c3ccc(O)cc3)C3CC(S(=O)(=O)Oc4ccc(Cl)cc4)C2O3)cc1 (racemic)	149%	241 nM	> 100000 nM	188%	1460 nM	3300 nM	126 nM	> 100000 nM	93%	> 30.3	44%	200 nM			580 nM	790 nM
